Values after ≈ are worked out from the molar mass of the structure shown.
Assay: Solubility determination
Assay type: physicochemical
Protocol: Prepare a 2 mg/mL solution of Example 2 in each of the required media by weighing approximately 1 mg of compound into a vial and add the required volume (i.e. 0.5 mL) of the corresponding media into each vial. Place capped vial on a rotating mixture over night (˜16 hours) at ambient conditions, then filter using 0.22 um Ultrafree-MC filters (Millipore™) and measure pH of filtrate (Orion 720A pH meter). Prepare the sample for HPLC analysis by transferring 100 μL of the filtrate into a HPLC vial and add 900 μL of 50% acetonitrile/water solution.

Solubility, Average mg/mL (50 mM phosphate buffer at pH 2, average filtrate pH 2.31): ≧2.0 mg/mL | Solubility, Average mg/mL (50 mM phosphate buffer at pH 4, average filtrate pH 4.92): 1.0524 mg/mL (≈ 2590 µM) | Solubility, Average mg/mL (50 mM phosphate buffer at pH 6, average filtrate pH 6.14): 0.7178 mg/mL (≈ 1770 µM) | Solubility, Average mg/mL (50 mM phosphate buffer at pH 8, average filtrate pH 8.00): 0.6352 mg/mL (≈ 1560 µM) | Solubility, Average mg/mL (0.1N HCl, average filtrate pH 1.15, ~16 hours, ambient): ≧2.0 mg/mL | Solubility, Average mg/mL (Fast, simulated intestinal fluid fasted state, average filtrate pH 6.45): 1.0203 mg/mL (≈ 2510 µM) | Solubility, Average mg/mL (Fed, simulated intestinal fluid fed state, average filtrate pH 5.09): ≧2.0 mg/mL | Solubility, Average mg/mL (SGF, simulated gastric fluid, average filtrate pH 3.52): 1.7529 mg/mL (≈ 4310 µM)
SMILES: CO[C@@H](C)Cn1c(=O)n(C)c2cnc3ccc(-c4cncc(C(C)(C)O)c4)cc3c21 [Example 2, 8-[5-(1-Hydroxy-1-methylethyl)pyridin-3-yl]-1-[(2S)-2-methoxypropyl]-3-methyl-1,3-dihydro-2H-imidazo[4,5-c]quinolin-2-one, Form I]

From patent US8658668B2, “PI3 kinase/mTOR dual inhibitor” (Eli Lilly and Company, priority 2011, dated 2014)
